Measured values from PubChem BioAssay (NCI).
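Dose response: 5 concentrations. Exposure: 48 h. Format: 96-well plates. Endpoint: linear interpolation; highest concentration if not reached. TGI denotes the concentration required for complete inhibition of growth.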

Columns and labels:
Experiment in all cases: DTP human tumour cell line panel, 48 h
HOP-92 NSCLC = test system: HOP-92 NSCLC
RXF 393 renal = test system: RXF 393 renal
DLD-1 colon = test system: DLD-1 colon
SNB-19 CNS = test system: SNB-19 CNS
SK-MEL-28 melanoma = test system: SK-MEL-28 melanoma
LXFL 529 NSCLC = test system: LXFL 529 NSCLC
A498 renal = test system: A498 renal
SW-620 colon = test system: SW-620 colon
HCT-116 colon = test system: HCT-116 colon
CAKI-1 renal = test system: CAKI-1 renal
TK-10 renal = test system: TK-10 renal
SK-MEL-2 melanoma = test system: SK-MEL-2 melanoma
NCI-H226 lung = test system: NCI-H226 lung
SNB-78 CNS = test system: SNB-78 CNS
HOP-18 NSCLC = test system: HOP-18 NSCLC
SK-MEL-5 melanoma = test system: SK-MEL-5 melanoma
MALME-3M melanoma = test system: MALME-3M melanoma
SF-268 CNS = test system: SF-268 CNS
OVCAR-8 ovarian = test system: OVCAR-8 ovarian
SF-295 CNS = test system: SF-295 CNS
UO-31 renal = test system: UO-31 renal
SF-539 CNS = test system: SF-539 CNS
MOLT-4 leukemia = test system: MOLT-4 leukemia
HCC-2998 colon = test system: HCC-2998 colon
OVCAR-5 ovarian = test system: OVCAR-5 ovarian
SNB-75 CNS = test system: SNB-75 CNS
NCI-H522 lung = test system: NCI-H522 lung
M19-MEL melanoma = test system: M19-MEL melanoma
OVCAR-3 ovarian = test system: OVCAR-3 ovarian
CCRF-CEM leukemia = test system: CCRF-CEM leukemia
RPMI-8226 leukemia = test system: RPMI-8226 leukemia
SN12C renal = test system: SN12C renal
U251 CNS = test system: U251 CNS
COLO 205 colon = test system: COLO 205 colon
UACC-62 melanoma = test system: UACC-62 melanoma
K-562 leukemia = test system: K-562 leukemia
UACC-257 melanoma = test system: UACC-257 melanoma
ACHN renal = test system: ACHN renal
DMS 273 small cell lung = test system: DMS 273 small cell lung
KM12 colon = test system: KM12 colon
A549 NSCLC = test system: A549 NSCLC
HL-60(TB) leukemia = test system: HL-60(TB) leukemia
DMS 114 small cell lung = test system: DMS 114 small cell lung
SR leukemia = test system: SR leukemia
NCI-H23 lung = test system: NCI-H23 lung
EKVX NSCLC = test system: EKVX NSCLC
NCI-H460 lung = test system: NCI-H460 lung
786-0 renal = test system: 786-0 renal
HT29 colon = test system: HT29 colon
SK-OV-3 ovarian = test system: SK-OV-3 ovarian
IGROV1 ovarian = test system: IGROV1 ovarian
KM20L2 colon = test system: KM20L2 colon
LOX IMVI melanoma = test system: LOX IMVI melanoma
XF 498 CNS = test system: XF 498 CNS
OVCAR-4 ovarian = test system: OVCAR-4 ovarian
M14 melanoma = test system: M14 melanoma
HOP-62 NSCLC = test system: HOP-62 NSCLC
HCT-15 colon = test system: HCT-15 colon

## O=[N+]([O-])c1cc(C2SCc3nc4ccccc4n32)ccc1Cl (stereo unspecified)
HOP-92 NSCLC
  TGI: 49.3 µM
RXF 393 renal
  TGI: 79 µM
DLD-1 colon
  TGI: > 100 µM
SNB-19 CNS
  TGI: > 100 µM
SK-MEL-28 melanoma
  TGI: > 100 µM
LXFL 529 NSCLC
  TGI: 99.7 µM
A498 renal
  TGI: 69.6 µM
SW-620 colon
  TGI: > 100 µM
HCT-116 colon
  TGI: 40.4 µM
CAKI-1 renal
  TGI: > 100 µM
TK-10 renal
  TGI: > 100 µM
SK-MEL-2 melanoma
  TGI: 50.9 µM
NCI-H226 lung
  TGI: 61.8 µM
SNB-78 CNS
  TGI: 80.1 µM
HOP-18 NSCLC
  TGI: > 100 µM
SK-MEL-5 melanoma
  TGI: 28.3 µM
MALME-3M melanoma
  TGI: > 100 µM
SF-268 CNS
  TGI: 81.1 µM
OVCAR-8 ovarian
  TGI: > 100 µM
SF-295 CNS
  TGI: > 100 µM
UO-31 renal
  TGI: 58.6 µM
SF-539 CNS
  TGI: 89.5 µM
MOLT-4 leukemia
  TGI: > 100 µM
HCC-2998 colon
  TGI: 34.3 µM
OVCAR-5 ovarian
  TGI: 76.8 µM
SNB-75 CNS
  TGI: > 100 µM
NCI-H522 lung
  TGI: 77.1 µM
M19-MEL melanoma
  TGI: 53.9 µM
OVCAR-3 ovarian
  TGI: 67.6 µM
CCRF-CEM leukemia
  TGI: 85.9 µM
RPMI-8226 leukemia
  TGI: 60.2 µM
SN12C renal
  TGI: 33.8 µM
U251 CNS
  TGI: > 100 µM
COLO 205 colon
  TGI: 46.6 µM
UACC-62 melanoma
  TGI: 52.6 µM
K-562 leukemia
  TGI: > 100 µM
UACC-257 melanoma
  TGI: 53.1 µM
ACHN renal
  TGI: > 100 µM
DMS 273 small cell lung
  TGI: 58 µM
KM12 colon
  TGI: 31.3 µM
A549 NSCLC
  TGI: > 100 µM
HL-60(TB) leukemia
  TGI: 42.4 µM
DMS 114 small cell lung
  TGI: 54.3 µM
SR leukemia
  TGI: > 100 µM
NCI-H23 lung
  TGI: 78.1 µM
EKVX NSCLC
  TGI: > 100 µM
NCI-H460 lung
  TGI: > 100 µM
786-0 renal
  TGI: > 100 µM
HT29 colon
  TGI: > 100 µM
SK-OV-3 ovarian
  TGI: 66.2 µM
IGROV1 ovarian
  TGI: > 100 µM

## O=c1nc(NC(c2ccccc2)(c2ccccc2)c2ccccc2)ccn1CCNCCn1ccc(NC(c2ccccc2)(c2ccccc2)c2ccccc2)nc1=O
HOP-92 NSCLC
  TGI: 24.4 µM
RXF 393 renal
  TGI: 25.6 µM
KM20L2 colon
  TGI: 30.1 µM
DLD-1 colon
  TGI: > 100 µM
SNB-19 CNS
  TGI: 23.4 µM
SK-MEL-28 melanoma
  TGI: 22.2 µM
LXFL 529 NSCLC
  TGI: 26.2 µM
A498 renal
  TGI: 78 µM
SW-620 colon
  TGI: 31.9 µM
HCT-116 colon
  TGI: 73 µM
CAKI-1 renal
  TGI: > 100 µM
TK-10 renal
  TGI: 60.6 µM
SK-MEL-2 melanoma
  TGI: 9.32 µM
NCI-H226 lung
  TGI: 34.7 µM
HOP-18 NSCLC
  TGI: 43.8 µM
SK-MEL-5 melanoma
  TGI: 20.5 µM
MALME-3M melanoma
  TGI: 29.3 µM
SF-268 CNS
  TGI: 32.4 µM
LOX IMVI melanoma
  TGI: 7.86 µM
OVCAR-8 ovarian
  TGI: 38.7 µM
XF 498 CNS
  TGI: 31.9 µM
SF-295 CNS
  TGI: 27.3 µM
UO-31 renal
  TGI: > 100 µM
SF-539 CNS
  TGI: 29.6 µM
HCC-2998 colon
  TGI: 17.1 µM
OVCAR-4 ovarian
  TGI: 49 µM
OVCAR-5 ovarian
  TGI: > 100 µM
SNB-75 CNS
  TGI: > 100 µM
NCI-H522 lung
  TGI: 21.5 µM
M19-MEL melanoma
  TGI: 21 µM
OVCAR-3 ovarian
  TGI: 58.3 µM
CCRF-CEM leukemia
  TGI: > 100 µM
SN12C renal
  TGI: 44.1 µM
U251 CNS
  TGI: 18.8 µM
COLO 205 colon
  TGI: 35.6 µM
UACC-62 melanoma
  TGI: 24.1 µM
K-562 leukemia
  TGI: > 100 µM
UACC-257 melanoma
  TGI: 23.3 µM
ACHN renal
  TGI: > 100 µM
DMS 273 small cell lung
  TGI: 21.6 µM
KM12 colon
  TGI: 11.9 µM
A549 NSCLC
  TGI: > 100 µM
DMS 114 small cell lung
  TGI: 13.5 µM
M14 melanoma
  TGI: 69.3 µM
NCI-H23 lung
  TGI: 26.8 µM
EKVX NSCLC
  TGI: 63.6 µM
NCI-H460 lung
  TGI: 33.8 µM
HOP-62 NSCLC
  TGI: 32.5 µM
786-0 renal
  TGI: 31.5 µM
HT29 colon
  TGI: 24.5 µM
SK-OV-3 ovarian
  TGI: 46.1 µM
IGROV1 ovarian
  TGI: 56.2 µM
HCT-15 colon
  TGI: > 100 µM

## C/C=C1/CCC2c3[nH]c4ccccc4c3CCN2C1 (stereo unspecified)
HOP-92 NSCLC
  TGI: 86.6 µM
RXF 393 renal
  TGI: > 100 µM
KM20L2 colon
  TGI: > 100 µM
DLD-1 colon
  TGI: > 100 µM
SNB-19 CNS
  TGI: > 100 µM
SK-MEL-28 melanoma
  TGI: > 100 µM
LXFL 529 NSCLC
  TGI: > 100 µM
A498 renal
  TGI: > 100 µM
SW-620 colon
  TGI: > 100 µM
HCT-116 colon
  TGI: > 100 µM
CAKI-1 renal
  TGI: > 100 µM
TK-10 renal
  TGI: > 100 µM
SK-MEL-2 melanoma
  TGI: > 100 µM
NCI-H226 lung
  TGI: > 100 µM
SNB-78 CNS
  TGI: > 100 µM
SK-MEL-5 melanoma
  TGI: > 100 µM
MALME-3M melanoma
  TGI: 67.7 µM
SF-268 CNS
  TGI: > 100 µM
OVCAR-8 ovarian
  TGI: > 100 µM
XF 498 CNS
  TGI: > 100 µM
SF-295 CNS
  TGI: > 100 µM
UO-31 renal
  TGI: > 100 µM
SF-539 CNS
  TGI: > 100 µM
MOLT-4 leukemia
  TGI: > 100 µM
OVCAR-4 ovarian
  TGI: > 100 µM
OVCAR-5 ovarian
  TGI: > 100 µM
SNB-75 CNS
  TGI: > 100 µM
NCI-H522 lung
  TGI: > 100 µM
M19-MEL melanoma
  TGI: > 100 µM
OVCAR-3 ovarian
  TGI: > 100 µM
CCRF-CEM leukemia
  TGI: > 100 µM
SN12C renal
  TGI: > 100 µM
U251 CNS
  TGI: > 100 µM
UACC-62 melanoma
  TGI: > 100 µM
K-562 leukemia
  TGI: > 100 µM
UACC-257 melanoma
  TGI: > 100 µM
ACHN renal
  TGI: > 100 µM
DMS 273 small cell lung
  TGI: > 100 µM
KM12 colon
  TGI: > 100 µM
A549 NSCLC
  TGI: > 100 µM
HL-60(TB) leukemia
  TGI: > 100 µM
DMS 114 small cell lung
  TGI: > 100 µM
SR leukemia
  TGI: > 100 µM
M14 melanoma
  TGI: 33.2 µM
NCI-H23 lung
  TGI: > 100 µM
EKVX NSCLC
  TGI: > 100 µM
NCI-H460 lung
  TGI: > 100 µM
HOP-62 NSCLC
  TGI: > 100 µM
786-0 renal
  TGI: > 100 µM
HT29 colon
  TGI: > 100 µM
SK-OV-3 ovarian
  TGI: > 100 µM
IGROV1 ovarian
  TGI: > 100 µM
